Columns and labels:
[1] = tested on: MDA-MB-231, A549, SGC-7901, SW480 and U138 MG cells; experiment: In vitro MR imaging of labelled tumor cells, with and without C225; format: cell-based, human; details: for MRI signal of cells pretreated with versus without C225: C225 preincubation 12 h, then 50 μM Gd for 24 h, all tested cell lines; for MR enhancement effect in MDA-MB-231, A549, SGC-7901 and SW480 tumor cells / MR enhancement effect in U138MG cell line: 37 °C, 11.7 T MR microimaging of cell pellets
Procedure: For the in vitro MRI assay, MDA-MB-231, A549, SGC-7901, SW480, and U138 MG cells were seeded into 100 mm × 20 mm cell culture dishes at a density of approximately 1 × 10^6 cells per dish and incubated with EBP-Gd-DO3A, EBP-(Gd-DO3A)3 or Gadovist at a Gd concentration of 50 μM for 24 h at 37 °C. After the completion of the labelling, the cells were washed with PBS 3 times and collected into 1.5 mm-i.d. capillary tubes that were centrifuged at 1400 rpm for 5 min to enable cells to be well packed in the bottom of the capillary for the MRI. The in vitro MRI experiments were performed on an 11.7 T Bruker NMR spectrometer that functioned as an MR microimaging system with a maximum gradient strength of 1.0 T/m. A linear 15-mm-i.d birdcage coil was used for radiofrequency transmission and signal reception. The parameters used for acquiring images were TR = 500 ms, TE = 5.2 ms, FOV = 12 × 12 mm^2, matrix = 96 × 96, flip angle = 90°, slice thickness/gap = 0.8/0.2 mm and number of averages = 4.
The C225-preincubated cells described above were imaged with MRI to observe the contrast enhancement effects. The method used for the MR imaging of cell pellets was the same as that for the in vitro MR imaging of the conjugates described above.

EGFR = biological target: T1, EGFR (Homo sapiens, UniProt P00533); experiment: EGFR inhibition assay (competitive cell binding with anti-EGFR antibody C225); format: cell-based; details: all tested cell lines, 5 μg/ml C225 preincubation 12 h, then 50 μM Gd for 1 h, ICP-MS
T1 construct: endogenous in cells; host or cells: MDA-MB-231, A549, SGC-7901, SW480, U138 MG (human tumour cell lines, CCTCC)
Procedure: To further verify the receptor-binding affinity and specificity of EBP-Gd-DO3A and EBP-(Gd-DO3A)3, a competitive cell-binding assay was carried out. MDA-MB-231, A549, SGC-7901, SW480, and U138 MG cells were preincubated with fresh serum-free medium containing 5 μg/ml anti-EGFR monoclonal antibody C225 (ImClone Systems, Inc., New York, NY) for 12 h at 37 °C. The culture supernatant was removed from the resulting solution, followed by the addition of EBP-Gd-DO3A, EBP-(Gd-DO3A)3, or Gadovist at a Gd concentration of 50 μM for the indicated time points. The cellular Gd content was measured by ICP-MS as described above, and the C225-induced reduction in the cellular Gd accumulation was used to calculate an inhibition index of cellular Gd uptake ([34]).

SGC-7901 cells = experiment: Cellular Gd content after incubation (cell binding assay, ICP-MS); format: cell-based, human; details: SGC-7901, 50 μM Gd, 37 °C, mean ± SD (n = 6)
Procedure: (§1) The binding of EBP-Gd-DO3A and EBP-(Gd-DO3A)3 to the receptor on MDA-MB-231, A549, SGC-7901, SW480, and U138 MG cells was compared with that of Gadovist. The cells were seeded into 100 mm × 20 mm cell culture dishes at a density of approximately 1 × 10^6 cells per dish and incubated with EBP-Gd-DO3A, EBP-(Gd-DO3A)3 or Gadovist at a Gd concentration of 50 μM for 1 h or 12 h at 37 °C. After incubation, the cells were washed once with PBS followed by mild acidic buffer (50 mM glycine, 150 mM NaCl (pH 3.0)) at 4 °C for 5 min. Then, the cells were washed twice with PBS, and the cellular Gd content was measured by ICP-MS.
(§2) Cells were seeded into 100 mm×20 mm cell culture dishes at a density of approximately 1×10^6 cells per dish and incubated with EBP-Gd-DO3A, EBP-(Gd-DO3A)3 or Gadovist® at Gd concentrations of 50 μM at 37°C for the indicated time points. The Gd content in the cell lysates was quantified by ICP-MS. The values are presented as the mean ± SD (n = 6).

U138MG cells = experiment: as above; format: cell-based, human; details: U138MG (non-EGFR-overexpressing), 50 μM Gd, 37 °C, mean ± SD (n = 6)
Procedure: as §1, §2

SW480 cells = experiment: as above; format: cell-based, human; details: SW480, 50 μM Gd, 37 °C, mean ± SD (n = 6)
Procedure: as §1, §2

A549 cells = experiment: as above; format: cell-based, human; details: A549, 50 μM Gd, 37 °C, mean ± SD (n = 6)
Procedure: as §1, §2

MDA-MB-231 cells = experiment: as above; format: cell-based, human; details: MDA-MB-231 (EGFR-overexpressing), 50 μM Gd, 37 °C, mean ± SD (n = 6)
Procedure: as §1, §2

Compound: O=C([O-])CN1CCN(CC(=O)[O-])CCN([C@H](CO)[C@H](O)CO)CCN(CC(=O)[O-])CC1.[Gd+3] (racemic) [Gadovist, reference compound]
- T1 signal intensity in cells with different levels of EGFR expression ([1]; 50 μM Gd, 24 h, ROI analysis, p > 0.05): not significantly different
- MRI signal of cells pretreated with versus without C225 [1]: no significant difference
- cellular Gd accumulation with versus without C225 pretreatment (EGFR): No significant difference
- Concentration of cellular Gd (SGC-7901 cells; 1 h): 0.15 ± 0.05 μM/10^6 cells
- Concentration of cellular Gd (SGC-7901 cells; 12 h): 0.16 ± 0.03 μM/10^6 cells
- Concentration of cellular Gd (U138MG cells; 1 h): 0.20 ± 0.04 μM/10^6 cells
- Concentration of cellular Gd (U138MG cells; 12 h): 0.24 ± 0.05 μM/10^6 cells
- Concentration of cellular Gd (SW480 cells; 1 h): 0.19 ± 0.07 μM/10^6 cells
- Concentration of cellular Gd (SW480 cells; 12 h): 0.20 ± 0.07 μM/10^6 cells
- Concentration of cellular Gd (A549 cells; 1 h): 0.25± 0.05 μM/10^6 cells
- Concentration of cellular Gd (A549 cells; 12 h): 0.18 ± 0.04 μM/10^6 cells
- Concentration of cellular Gd (MDA-MB-231 cells; 1 h): 0.18 ± 0.06 μM/10^6 cells
- Concentration of cellular Gd (MDA-MB-231 cells; 12 h): 0.13 ± 0.02 μM/10^6 cells

Compound: CMYIEALDKYAC [EBP-(Gd-DO3A)3]
- MR enhancement effect in MDA-MB-231, A549, SGC-7901 and SW480 tumor cells ([1]; 50 μM Gd, 24 h): strong enhancement effects
- MR enhancement effect in U138MG cell line ([1]; 50 μM Gd, 24 h): much weaker enhancement effect
- MRI signal of cells pretreated with versus without C225 [1]: reduced
- cellular Gd accumulation with versus without C225 pretreatment (EGFR): reduced
- Concentration of cellular Gd (SGC-7901 cells; 1 h): 1.01± 0.08 μM/10^6 cells
- Concentration of cellular Gd (SGC-7901 cells; 12 h): 2.31 ± 0.14 μM/10^6 cells
- Concentration of cellular Gd (U138MG cells; 1 h): 0.15 ± 0.04 μM/10^6 cells
- Concentration of cellular Gd (U138MG cells; 12 h): 0.74 ± 0.17 μM/10^6 cells
- Concentration of cellular Gd (SW480 cells; 1 h): 1.05 ± 0.09 μM/10^6 cells
- Concentration of cellular Gd (SW480 cells; 12 h): 2.65 ± 0.11 μM/10^6 cells
- Concentration of cellular Gd (A549 cells; 1 h): 1.04 ± 0.06 μM/10^6 cells
- Concentration of cellular Gd (A549 cells; 12 h): 2.66 ± 0.15 μM/10^6 cells
- Concentration of cellular Gd (MDA-MB-231 cells; 1 h): 1.17 ± 0.12 μM/10^6 cells
- Concentration of cellular Gd (MDA-MB-231 cells; 12 h): 2.79 ± 0.18 μM/10^6 cells

Compound: CMYIEALDKYAC [EBP-Gd-DO3A]
- MR enhancement effect in MDA-MB-231, A549, SGC-7901 and SW480 tumor cells ([1]; 50 μM Gd, 24 h): strong enhancement effects
- MR enhancement effect in U138MG cell line ([1]; 50 μM Gd, 24 h): much weaker enhancement effect
- MRI signal of cells pretreated with versus without C225 [1]: reduced
- cellular Gd accumulation with versus without C225 pretreatment (EGFR): reduced
- Concentration of cellular Gd (SGC-7901 cells; 1 h): 0.35 ± 0.04 μM/10^6 cells
- Concentration of cellular Gd (SGC-7901 cells; 12 h): 1.12 ± 0.16 μM/10^6 cells
- Concentration of cellular Gd (U138MG cells; 1 h): 0.09 ± 0.01 μM/10^6 cells
- Concentration of cellular Gd (U138MG cells; 12 h): 0.25 ± 0.07 μM/10^6 cells
- Concentration of cellular Gd (SW480 cells; 1 h): 0.31 ± 0.06 μM/10^6 cells
- Concentration of cellular Gd (SW480 cells; 12 h): 1.01 ± 0.13 μM/10^6 cells
- Concentration of cellular Gd (A549 cells; 1 h): 0.37 ± 0.07 μM/10^6 cells
- Concentration of cellular Gd (A549 cells; 12 h): 1.24 ± 0.19 μM/10^6 cells
- Concentration of cellular Gd (MDA-MB-231 cells; 1 h): 0.43 ± 0.05 μM/10^6 cells
- Concentration of cellular Gd (MDA-MB-231 cells; 12 h): 1.16 ± 0.10 μM/10^6 cells

— article PMC12810539, “EGFR-targeted gadolinium contrast agents for enhanced molecular magnetic resonance imaging of tumors” (The Journal of Biological Chemistry, 2025)
